The results in this text go back to patent US20250325699A1, “POLYPEPTIDES AND METHODS OF USE” (Aldevron, LLC, priority 2022, published 2025).

This assay relates to HepG2 cells. The assay can be described thus: In vitro transfection of HepG2 cells, normalized luciferase activity. It counts as cell-based. Conditions: 48 hours. The protocol: FIGS. 4A and 4B are graphs showing normalized luciferase activity in HepG2 cells 48 hours after in vitro transfection. Lipid nanoparticles were formed with RALA-NLS polypeptides and 250 ng or 500 ng C3-fLuc1157 DNA at a molar ratio of 700, 1400, 2100, or 2800. […]
FIGS. 4A and 4B are graphs showing normalized luciferase activity in HepG2 cells 48 hours after in vitro transfection. Lipid nanoparticles were formed with RALA-NLS polypeptides and 250 ng or 500 ng C^3-fLuc1157 DNA at a molar ratio of 700, 1400, 2100, or 2800.

Consider “WEARLARALARALARHLARALARALRACEAPKKKRKV [RALA-NLS]”, for which the “transfection efficiency in slightly cationic LNPs (20% DOTAP)” value (FIG. 4B (20% DOTAP) versus FIG. 4A (DOPE)) is on record as “more pronounced”. Further, the “transfection with higher amounts of DNA (500 ng) as compared to lower amounts (250 ng)” value (FIGS. 4A and 4B) was “more efficient transfection”. Moreover, the “transfection improvement compared to LNP without polypeptide” value is on record as ~20 fold (LNP with 700× polypeptide (molar ratio to C^3-fLuc1157 DNA)), ~35 fold (LNP with 1400× polypeptide (molar ratio to C^3-fLuc1157 DNA)), ~50 fold (LNP with 2100× polypeptide (molar ratio to C^3-fLuc1157 DNA)) and ~65 fold (LNP with 2800× polypeptide (molar ratio to C^3-fLuc1157 DNA)).
